Source: the NIST ThermoML archive (doi:10.1021/je5009334)
± gives the expanded uncertainty stated by the source.

Assay: xn = mol fraction of the nth substance listed
Conditions: 101 kPa, Liquid; for speed of sound: Sing-around technique in a fixed-path interferometer; for mass density: Vibrating tube method

SMILES: CC(O)CCO (stereo not given) [1,3-butanediol] + CCC(O)CO
- speed of sound (298.15 K, x2 = 0): 1527.8 ± 2.1 m/s
- speed of sound (298.15 K, x2 = 0.1): 1523.2 ± 2.1 m/s
- speed of sound (298.15 K, x2 = 0.2): 1517.9 ± 2 m/s
- speed of sound (298.15 K, x2 = 0.3): 1512.7 ± 1.9 m/s
- speed of sound (298.15 K, x2 = 0.4): 1507.1 ± 1.8 m/s
- speed of sound (298.15 K, x2 = 0.5): 1498.9 ± 1.7 m/s
- speed of sound (298.15 K, x2 = 0.6): 1492.2 ± 1.6 m/s
- speed of sound (298.15 K, x2 = 0.7): 1482.6 ± 1.5 m/s
- speed of sound (298.15 K, x2 = 0.8): 1473.2 ± 1.4 m/s
- speed of sound (298.15 K, x2 = 0.9): 1463.1 ± 1.4 m/s
- mass density (298.15 K, x2 = 0): 1001.82 ± 0.84 kg/m3
- mass density (298.15 K, x2 = 0.1): 1001.83 ± 0.76 kg/m3
- mass density (298.15 K, x2 = 0.2): 1001.78 ± 0.69 kg/m3
- mass density (298.15 K, x2 = 0.3): 1001.74 ± 0.61 kg/m3
- mass density (298.15 K, x2 = 0.4): 1001.61 ± 0.55 kg/m3
- mass density (298.15 K, x2 = 0.5): 1001.24 ± 0.48 kg/m3
- mass density (298.15 K, x2 = 0.6): 1000.94 ± 0.42 kg/m3
- mass density (298.15 K, x2 = 0.7): 1000.36 ± 0.37 kg/m3
- mass density (298.15 K, x2 = 0.8): 999.812 ± 0.32 kg/m3
- mass density (298.15 K, x2 = 0.9): 999.175 ± 0.27 kg/m3
- speed of sound (303.15 K, x2 = 0): 1514.1 ± 2.1 m/s
- speed of sound (303.15 K, x2 = 0.1): 1509 ± 2.1 m/s
- speed of sound (303.15 K, x2 = 0.2): 1503.9 ± 2 m/s
- speed of sound (303.15 K, x2 = 0.3): 1498.2 ± 1.9 m/s
- speed of sound (303.15 K, x2 = 0.4): 1492.5 ± 1.8 m/s
- speed of sound (303.15 K, x2 = 0.5): 1484.3 ± 1.7 m/s
- speed of sound (303.15 K, x2 = 0.6): 1477.4 ± 1.6 m/s
- speed of sound (303.15 K, x2 = 0.7): 1468 ± 1.5 m/s
- speed of sound (303.15 K, x2 = 0.8): 1458.5 ± 1.4 m/s
- speed of sound (303.15 K, x2 = 0.9): 1448.3 ± 1.4 m/s
- mass density (303.15 K, x2 = 0): 998.418 ± 0.84 kg/m3
- mass density (303.15 K, x2 = 0.1): 998.382 ± 0.76 kg/m3
- mass density (303.15 K, x2 = 0.2): 998.283 ± 0.68 kg/m3
- mass density (303.15 K, x2 = 0.3): 998.2 ± 0.61 kg/m3
- mass density (303.15 K, x2 = 0.4): 998.02 ± 0.54 kg/m3
- mass density (303.15 K, x2 = 0.5): 997.617 ± 0.48 kg/m3
- mass density (303.15 K, x2 = 0.6): 997.284 ± 0.42 kg/m3
- mass density (303.15 K, x2 = 0.7): 996.675 ± 0.37 kg/m3
- mass density (303.15 K, x2 = 0.8): 996.1 ± 0.32 kg/m3
- mass density (303.15 K, x2 = 0.9): 995.436 ± 0.27 kg/m3
- speed of sound (308.15 K, x2 = 0): 1500.2 ± 2.1 m/s
- speed of sound (308.15 K, x2 = 0.1): 1494.9 ± 2.1 m/s
- speed of sound (308.15 K, x2 = 0.2): 1489.6 ± 2 m/s
- speed of sound (308.15 K, x2 = 0.3): 1483.8 ± 1.9 m/s
- speed of sound (308.15 K, x2 = 0.4): 1478 ± 1.8 m/s
- speed of sound (308.15 K, x2 = 0.5): 1469.7 ± 1.7 m/s
- speed of sound (308.15 K, x2 = 0.6): 1462.7 ± 1.6 m/s
- speed of sound (308.15 K, x2 = 0.7): 1453.3 ± 1.5 m/s
- speed of sound (308.15 K, x2 = 0.8): 1443.8 ± 1.4 m/s
- speed of sound (308.15 K, x2 = 0.9): 1433.7 ± 1.3 m/s
- mass density (308.15 K, x2 = 0): 994.987 ± 0.83 kg/m3
- mass density (308.15 K, x2 = 0.1): 994.902 ± 0.75 kg/m3
- mass density (308.15 K, x2 = 0.2): 994.756 ± 0.68 kg/m3
- mass density (308.15 K, x2 = 0.3): 994.626 ± 0.61 kg/m3
- mass density (308.15 K, x2 = 0.4): 994.403 ± 0.54 kg/m3
- mass density (308.15 K, x2 = 0.5): 993.965 ± 0.48 kg/m3
- mass density (308.15 K, x2 = 0.6): 993.596 ± 0.42 kg/m3
- mass density (308.15 K, x2 = 0.7): 992.955 ± 0.37 kg/m3
- mass density (308.15 K, x2 = 0.8): 992.352 ± 0.32 kg/m3
- mass density (308.15 K, x2 = 0.9): 991.664 ± 0.27 kg/m3
- speed of sound (313.15 K, x2 = 0): 1486.3 ± 2.1 m/s
- speed of sound (313.15 K, x2 = 0.1): 1480.8 ± 2 m/s
- speed of sound (313.15 K, x2 = 0.2): 1475.3 ± 2 m/s
- speed of sound (313.15 K, x2 = 0.3): 1469.3 ± 1.9 m/s
- speed of sound (313.15 K, x2 = 0.4): 1463.5 ± 1.8 m/s
- speed of sound (313.15 K, x2 = 0.5): 1455.1 ± 1.7 m/s
- speed of sound (313.15 K, x2 = 0.6): 1448 ± 1.6 m/s
- speed of sound (313.15 K, x2 = 0.7): 1438.5 ± 1.5 m/s
- speed of sound (313.15 K, x2 = 0.8): 1429.1 ± 1.4 m/s
- speed of sound (313.15 K, x2 = 0.9): 1419 ± 1.3 m/s
- mass density (313.15 K, x2 = 0): 991.528 ± 0.83 kg/m3
- mass density (313.15 K, x2 = 0.1): 991.39 ± 0.75 kg/m3
- mass density (313.15 K, x2 = 0.2): 991.196 ± 0.67 kg/m3
- mass density (313.15 K, x2 = 0.3): 991.02 ± 0.6 kg/m3
- mass density (313.15 K, x2 = 0.4): 990.753 ± 0.54 kg/m3
- mass density (313.15 K, x2 = 0.5): 990.276 ± 0.48 kg/m3
- mass density (313.15 K, x2 = 0.6): 989.874 ± 0.42 kg/m3
- mass density (313.15 K, x2 = 0.7): 989.201 ± 0.37 kg/m3
- mass density (313.15 K, x2 = 0.8): 988.572 ± 0.32 kg/m3
- mass density (313.15 K, x2 = 0.9): 987.858 ± 0.27 kg/m3
- speed of sound (318.15 K, x2 = 0): 1472.3 ± 2.1 m/s
- speed of sound (318.15 K, x2 = 0.1): 1466.5 ± 2 m/s
- speed of sound (318.15 K, x2 = 0.2): 1460.6 ± 2 m/s
- speed of sound (318.15 K, x2 = 0.3): 1454.9 ± 1.9 m/s
- speed of sound (318.15 K, x2 = 0.4): 1449 ± 1.8 m/s
- speed of sound (318.15 K, x2 = 0.5): 1440.5 ± 1.7 m/s
- speed of sound (318.15 K, x2 = 0.6): 1433.3 ± 1.6 m/s
- speed of sound (318.15 K, x2 = 0.7): 1423.9 ± 1.5 m/s
- speed of sound (318.15 K, x2 = 0.8): 1414.3 ± 1.4 m/s
- speed of sound (318.15 K, x2 = 0.9): 1404.4 ± 1.3 m/s
- mass density (318.15 K, x2 = 0): 988.035 ± 0.82 kg/m3
- mass density (318.15 K, x2 = 0.1): 987.845 ± 0.74 kg/m3
- mass density (318.15 K, x2 = 0.2): 987.595 ± 0.67 kg/m3
- mass density (318.15 K, x2 = 0.3): 987.379 ± 0.6 kg/m3
- mass density (318.15 K, x2 = 0.4): 987.07 ± 0.54 kg/m3
- mass density (318.15 K, x2 = 0.5): 986.554 ± 0.47 kg/m3
- mass density (318.15 K, x2 = 0.6): 986.118 ± 0.42 kg/m3
- mass density (318.15 K, x2 = 0.7): 985.412 ± 0.36 kg/m3
- mass density (318.15 K, x2 = 0.8): 984.756 ± 0.32 kg/m3
- mass density (318.15 K, x2 = 0.9): 984.01 ± 0.27 kg/m3
- speed of sound (323.15 K, x2 = 0): 1458.3 ± 2.1 m/s
- speed of sound (323.15 K, x2 = 0.1): 1452.5 ± 2 m/s
- speed of sound (323.15 K, x2 = 0.2): 1446.2 ± 2 m/s
- speed of sound (323.15 K, x2 = 0.3): 1440.4 ± 1.9 m/s
- speed of sound (323.15 K, x2 = 0.4): 1434.3 ± 1.8 m/s
- speed of sound (323.15 K, x2 = 0.5): 1425.8 ± 1.7 m/s
- speed of sound (323.15 K, x2 = 0.6): 1418.6 ± 1.6 m/s
- speed of sound (323.15 K, x2 = 0.7): 1409.1 ± 1.5 m/s
- speed of sound (323.15 K, x2 = 0.8): 1399.6 ± 1.4 m/s
- speed of sound (323.15 K, x2 = 0.9): 1390.1 ± 1.3 m/s
- mass density (323.15 K, x2 = 0): 984.506 ± 0.82 kg/m3
- mass density (323.15 K, x2 = 0.1): 984.262 ± 0.74 kg/m3
- mass density (323.15 K, x2 = 0.2): 983.961 ± 0.67 kg/m3
- mass density (323.15 K, x2 = 0.3): 983.701 ± 0.6 kg/m3
- mass density (323.15 K, x2 = 0.4): 983.35 ± 0.53 kg/m3
- mass density (323.15 K, x2 = 0.5): 982.795 ± 0.47 kg/m3
- mass density (323.15 K, x2 = 0.6): 982.326 ± 0.42 kg/m3
- mass density (323.15 K, x2 = 0.7): 981.586 ± 0.36 kg/m3
- mass density (323.15 K, x2 = 0.8): 980.82 ± 0.32 kg/m3
- mass density (323.15 K, x2 = 0.9): 980.034 ± 0.27 kg/m3
